Where two headings read alike, the source gives them in different places.
Key:
[1] = system: MCP-1 production in influenza virus-infected U937 cells (H1N1); assay: cells; format: cell-based; details: Homo sapiens; for EC50: read-out: EC50 MCP-1
[2] = system: MCP-1 production in influenza virus-infected U937 cells (H3N2); assay: cells; format: cell-based, Human; details: Homo sapiens, U-937
[3] = system: STAT1 phosphorylation (p-STAT1); format: cell-based, Human
JAK2 = target: T1, JAK2 (Homo sapiens, UniProt O60674); assay: Cell-free kinase activity assay, JAK2; format: biochemical; details: cell-free kinase assay
T1 construct: purchased KinaseProfiler (Eurofin, Brussels, Belgium)

[4] = system: ERK phosphorylation (p-ERK); assay: Western blot of phosphorylated ERK in influenza-infected U937 cells; format: cell-based, Human; details: 24 h post-infection, western blot
Description: Figure 5 Raf/MEK/ERK and p38 signal pathways are involved in the regulation of cytokines in U937 cells. (A–C) Determination of inhibition rates on IL-8, IP-10, and MCP-1 by each compound in the MAPK group and the distribution of targets between subgroups. U937 cells were infected with influenza A/PuertoRico/8/1934 virus (MOI = 0.1) in the presence of 10 μM of each inhibitor and then incubated at 37°C for 48 h. The distribution of the targets of all the inhibitors in the MAPK group was then analyzed and categorized into subgroups. […] The supernatants were harvested 48 h post-infection, and the levels of IL-8, MCP-1, and IP-10 were measured by AlphaLISA. (E) The cells were treated as in (C) except being lysed 24 h post-infection, and the levels of phosphorylated STAT1, p38, ERK (p-STAT1, p-p38, p-ERK), total STAT1, p38, ERK, and viral protein HA were assessed by western blot. (F) A quantitative analysis of the relative levels of the phosphorylated STAT1, p38, ERK (p-STAT1, p-p38, p-ERK) in (E). The data are representative of at least three independent experiments. n.s. no significance; *p < 0.05; **p < 0.01; ***p < 0.001.
(§1) Figure 6 TKIs repress cytokine production by suppressing the p38 pathway. […] Cells were lysed 24 h post-infection, and the levels of phosphorylated p38 and ERK (p-p38 and p-ERK) and total p38 and ERK were assessed by western blot. A quantification of phosphorylated p38 levels for each drug treatment was included in the right panel of each figure.
Cells were homogenized in RIPA lysis buffer containing a 1% protease inhibitor cocktail (Roche) to extract total protein. Equal amounts of protein homogenates were separated by SDS-PAGE (Bio-Rad) and transferred onto polyvinylidene difluoride membranes (pore size […]; Bio-Rad). […] Protein levels were detected with horseradish peroxidase-tagged secondary antibodies and enhanced chemiluminescence western blot reagents (Advansta), followed by visualization using an enhanced chemiluminescence system (AlphaEase FluorChem System, Alpha Innotech Corp.). Bands were quantified using ImageJ (Ver. 1.46; NIH, Bethesda, MD).

[5] = system: MCP-1 production in influenza virus-infected U937 cells (H7N8); assay: cells; format: cell-based, Human; details: Homo sapiens, U-937, read-out: EC50 MCP-1
[6] = system: IP-10 production in influenza virus-infected U937 cells (H7N8); assay: cells; format: cell-based, Human; details: Homo sapiens, U-937, read-out: EC50 IP-10
[7] = system: IL-8 production in influenza virus-infected U937 cells (H1N1); assay: cells; format: cell-based, Human; details: Homo sapiens; for EC50: read-out: EC50 IL-8
JAK1 = JAK1 (Homo sapiens, UniProt P23458); assay: Cell-free kinase activity assay, JAK1; details: cell-free kinase assay
[8] = system: influenza virus infection; set-up: method as in Florence et al., 2018; Chen et al., 2019; details: without compromising viral titers; ref Florence et al., 2018; Chen et al., 2019; cited from earlier work
U937 cells = details: human
[9] = system: IP-10 production in influenza virus-infected U937 cells (H3N2); assay: cells; format: cell-based, Human; details: Homo sapiens, U-937
[10] = system: STAT3 phosphorylation (p-STAT3); assay: Western blot of phosphorylated STAT3 in influenza-infected U937 cells; format: cell-based, Human; details: 1 μM ponatinib, 24 h
Description: Figure 3 JAK is essential for regulating the production of pro-inflammatory cytokines induced by influenza infection in U937 cells. Inhibition rates on IL-8 (A), IP-10 (B), and MCP-1 (C) by each compound in the PTK group are categorized based on targets. […] The cells were then lysed after 24 h incubation at 37°C, and the levels of phosphorylated STAT1 (p-STAT1), total STAT1, phosphorylated STAT3 (p-STAT3), and total STAT3 were assessed by western blot.
(§2) Cells were homogenized in RIPA lysis buffer containing a 1% protease inhibitor cocktail (Roche) to extract total protein. Equal amounts of protein homogenates were separated by SDS-PAGE (Bio-Rad) and transferred onto polyvinylidene difluoride membranes (pore size […]; Bio-Rad). The membranes were then blotted with monoclonal antibodies against GAPDH (1:1000, ZSGB-BIO), p38, phosphor-p38, ERK, phospho-ERK, STAT1, phosphor-STAT1 (1:1000; Cell Signaling Technology), STAT3, and phosphor-STAT3 (1:1000; Cell Signaling Technology), respectively. Protein levels were detected with horseradish peroxidase-tagged secondary antibodies and enhanced chemiluminescence western blot reagents (Advansta), followed by visualization using an enhanced chemiluminescence system (AlphaEase FluorChem System, Alpha Innotech Corp.). Bands were quantified using ImageJ (Ver. 1.46; NIH, Bethesda, MD).

[11] = system: IL-8 production in influenza virus-infected U937 cells (H7N8); assay: cells; format: cell-based, Human; details: Homo sapiens, U-937, read-out: EC50 IL-8
[12] = system: IL-8 production in influenza virus-infected U937 cells (H3N2); assay: cells; format: cell-based, Human; details: Homo sapiens, U-937
[13] = system: IP-10 production in influenza virus-infected U937 cells (H1N1); assay: cells; format: cell-based; details: Homo sapiens; for EC50: read-out: EC50 IP-10
[14] = system: phosphorylation of p38 (p-p38); assay: Western blot of phosphorylated p38 in influenza-infected U937 cells; format: cell-based, Human; details: Homo sapiens, U-937, read-out: IC50 p-p38
Description: as §1, §2

[15] = U-937, secondary screen, Supplemental Table 1

T1 sequence (O60674 whole entry): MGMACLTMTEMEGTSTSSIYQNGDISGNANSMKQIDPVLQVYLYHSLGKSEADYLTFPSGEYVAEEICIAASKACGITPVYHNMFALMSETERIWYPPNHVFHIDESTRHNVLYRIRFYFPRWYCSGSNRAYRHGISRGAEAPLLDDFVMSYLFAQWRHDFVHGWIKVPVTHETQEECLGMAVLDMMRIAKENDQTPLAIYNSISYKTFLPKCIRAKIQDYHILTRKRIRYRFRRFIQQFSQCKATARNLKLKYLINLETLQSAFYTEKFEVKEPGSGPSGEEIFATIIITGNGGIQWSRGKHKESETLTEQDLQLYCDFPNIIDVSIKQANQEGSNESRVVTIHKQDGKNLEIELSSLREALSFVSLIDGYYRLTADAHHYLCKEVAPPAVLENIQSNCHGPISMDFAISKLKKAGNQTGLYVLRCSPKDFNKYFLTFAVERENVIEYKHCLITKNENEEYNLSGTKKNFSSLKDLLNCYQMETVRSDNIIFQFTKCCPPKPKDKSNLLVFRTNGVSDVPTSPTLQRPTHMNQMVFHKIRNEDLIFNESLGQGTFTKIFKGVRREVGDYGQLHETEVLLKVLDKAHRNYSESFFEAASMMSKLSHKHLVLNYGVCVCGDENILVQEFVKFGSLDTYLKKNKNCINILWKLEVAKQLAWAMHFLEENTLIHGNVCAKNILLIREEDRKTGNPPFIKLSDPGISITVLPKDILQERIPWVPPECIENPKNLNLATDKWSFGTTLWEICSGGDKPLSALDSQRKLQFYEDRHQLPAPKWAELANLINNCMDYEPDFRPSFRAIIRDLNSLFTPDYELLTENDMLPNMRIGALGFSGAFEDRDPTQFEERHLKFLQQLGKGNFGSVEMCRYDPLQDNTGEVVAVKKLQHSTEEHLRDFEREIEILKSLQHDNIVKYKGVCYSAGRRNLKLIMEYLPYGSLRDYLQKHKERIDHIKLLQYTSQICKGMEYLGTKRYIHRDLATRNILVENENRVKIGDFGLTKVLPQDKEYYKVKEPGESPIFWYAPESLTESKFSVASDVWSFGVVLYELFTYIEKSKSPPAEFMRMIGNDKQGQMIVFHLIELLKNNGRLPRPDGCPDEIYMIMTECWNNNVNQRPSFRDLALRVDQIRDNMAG
Sequence of JAK1 (P23458 whole entry): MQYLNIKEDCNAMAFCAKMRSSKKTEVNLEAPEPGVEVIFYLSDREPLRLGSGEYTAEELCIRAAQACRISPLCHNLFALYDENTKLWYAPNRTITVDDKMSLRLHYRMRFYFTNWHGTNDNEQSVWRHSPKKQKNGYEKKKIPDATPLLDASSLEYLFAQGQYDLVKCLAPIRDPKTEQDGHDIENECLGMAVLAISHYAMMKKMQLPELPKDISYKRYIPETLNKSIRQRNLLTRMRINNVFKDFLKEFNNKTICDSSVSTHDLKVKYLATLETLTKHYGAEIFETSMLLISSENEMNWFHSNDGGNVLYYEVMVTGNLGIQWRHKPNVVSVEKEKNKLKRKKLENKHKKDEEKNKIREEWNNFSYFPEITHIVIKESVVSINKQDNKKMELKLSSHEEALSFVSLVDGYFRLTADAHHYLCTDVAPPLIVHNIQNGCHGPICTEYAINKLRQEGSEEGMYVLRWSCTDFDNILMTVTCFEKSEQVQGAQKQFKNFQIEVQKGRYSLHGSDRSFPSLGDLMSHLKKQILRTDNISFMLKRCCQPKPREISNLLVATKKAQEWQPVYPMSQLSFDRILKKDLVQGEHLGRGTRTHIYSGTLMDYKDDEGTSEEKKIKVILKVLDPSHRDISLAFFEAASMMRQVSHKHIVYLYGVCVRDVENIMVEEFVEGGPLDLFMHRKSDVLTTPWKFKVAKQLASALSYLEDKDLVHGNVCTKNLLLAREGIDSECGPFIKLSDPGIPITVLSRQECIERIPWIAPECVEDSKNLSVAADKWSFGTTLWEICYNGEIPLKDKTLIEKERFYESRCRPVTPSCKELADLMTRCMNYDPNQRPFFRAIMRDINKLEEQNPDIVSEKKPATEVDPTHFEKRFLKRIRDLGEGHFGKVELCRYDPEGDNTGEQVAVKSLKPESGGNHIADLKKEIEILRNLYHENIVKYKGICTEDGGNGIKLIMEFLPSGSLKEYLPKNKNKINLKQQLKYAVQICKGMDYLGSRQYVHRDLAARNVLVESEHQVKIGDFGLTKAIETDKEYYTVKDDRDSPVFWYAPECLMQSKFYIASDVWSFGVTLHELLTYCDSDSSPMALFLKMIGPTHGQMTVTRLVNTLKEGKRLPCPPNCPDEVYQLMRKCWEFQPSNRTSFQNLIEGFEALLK

With Cc1ccc(C(=O)Nc2ccc(CN3CCN(C)CC3)c(C(F)(F)F)c2)cc1C#Cc1cnc2cccnn12 [Ponatinib] the EC50 [1, 15] was under 5 nM, the EC50 ([1]; U-937) was 385 nM and the IC50 ([1]; U-937, read-out: IC50 MCP-1) was 400 nM. For the same compound, the EC50 [2] was 625 nM, the STAT1 phosphorylation levels [3] was “significantly reduced” and the JAK2 activity (JAK2) was “weaker effect”. For the same compound, the “phosphorylation level of ERK” value [4] was “promoted”, the EC50 [5] was 345 nM and the EC50 [6] was 833 nM. For the same compound, the IC50 ([7]; U-937) was 300 nM, the EC50 [7, 15] was under 5 nM and the EC50 ([7]; U-937) was 294 nM. For the same compound, the JAK1 activity (JAK1) was “directly inhibit”, the “protection of mice from lethal influenza infection” value [8] was “protecting mice from lethal influenza infection” and the maximum non-toxic concentration (U937 cells) was 1 µM. For the same compound, the EC50 [9] was 59 nM, the STAT3 phosphorylation [10] was “limited inhibition” and the EC50 [11] was 833 nM. For the same compound, the EC50 [12] was 714 nM, the EC50 [13, 15] was 60 nM and the EC50 ([13]; U-937) was 270 nM. The IC50 ([13]; U-937, read-out: IC50 IP-10) was 250 nM and the IC50 [14] was 180 nM.

Reference: paper PMC11808136, “Screening and identification of host signaling pathways for alleviating influenza-induced production of pro-inflammatory cytokines, IP-10, IL-8, and MCP-1, using a U937 cell-based influenza model” (Frontiers in Microbiology, 2025)
